Measurements as given in paper PMC6624297 (Cell Death & Disease, 2019).

Legend:
human TS (hTS) = target: T1, human TS (hTS) (Homo sapiens, UniProt P04818); assay: Thymidylate synthase (TS) spectrophotometric assay; type: biochemical; details: averages from triplicate assays
T1 construct: purchased ProSpec-Tany
Experimental: Recombinant human thymidylate synthase purchased from ProSpec-Tany Company. TS was assayed spectrophotometrically at 30 °C and pH 7.4 in a mixture containing 0.1 M 2-mercaptoethanol, 0.0003 M (6R,S)-tetrahydrofolate, 0.012 M formaldehyde, 0.02 M MgCl2, 0.001 M dUMP, 0.04 M Tris–HCl, 30 nM hTS, and 0.00075 M NaEDTA. […] The reaction was initiated by the addition of an amount of enzyme yielding a change in absorbance at 340 nm of 0.016/min in the absence of inhibitor.

[1] = system: P53, caspase-3, bcl-2/bax, cleaved caspase-3; assay: Western blot apoptotic proteins, H460; type: cell-based, human; details: H460, 0.5, 1.0, 1.5 μM, 24 h
Experimental: (§1) A549 cells, H460 cells and HUVECs were treated with different concentrations of compound L14e for 24 h. Primary antibodies (100 μL/cm^2): P53(10442-1-AP, Proteintech Group),caspase-3 (19677-1-AP, Proteintech Group), bax (50599-2-lg, Proteintech Group), bcl-2 (12789-1-AP, Proteintech Group), cleaved caspase-3 (25546-1-AP, Proteintech Group), β-actin (60008-1-lg, Proteintech Group), EGFR (ab21074, Abcam), AKT (#2920, Cell Signaling Technology), ERK1/2 (#4370, Cell Signaling Technology), VEGFR-2 (#9698, Cell Signaling Technology), p-EGFR (ab40815, Abcam), p-AKT (#4060, Cell Signaling Technology), p-ERK1/2 (#4695, Cell Signaling Technology), p-VEGFR-2 (#3770, Cell Signaling Technology), and GAPDH (ab181603, Abcam). The cellular levels of proteins were determined by standard Western blotting. Details were given in Supplementary Materials and Methods.
(§2) A549 cells, H460 cells and HUVECs were treated with different concentrations of compound L14e for 24 h, and collected to establish their respective treatment groups. […]
(§3) Extracted proteins were separated from each other using polyacrylamide electrophoresis on a 10 % gel (Beyotime Biotechnology Company, Shanghai, China) and transferred to a polyvinylidene fluoride (PVDF) membrane. […] Gray values of protein bands were quantitatively analyzed, with the gray value of β-actin(GAPDH) band as the reference.

A549 tumor xenograft = A549 tumor xenograft model; type: in vivo, BABL/c female nude mice; details: 80 mg/kg, 3 weeks
Experimental: Five-week-old immunodeficient BABL/c female nude mice, weighing 18 to 20 g, were purchased and maintained under specific pathogen-free conditions. They were implanted subcutaneously with 1 × 10^7 A549 cells. Tumor sizes were assessed using the two largest perpendicular axes. Tumor volume was calculated using the formula V = (a × b^2)/2, where a is length and b is width. The tumor volume was measured every 3 days. When tumor volumes reached 50 mm^3, the mice were randomized to drug-treated or vehicle groups (five mice per group). Tumor growth was monitored every 3 days using a Vernier caliper. […] All animal studies were conducted with the approval of the Laboratory Animal Welfare and Ethical Committee of China Medical University.
After incubation with hydrogen peroxide, the slides were washed with PBS and then incubated with 0.4% Triton X-100. The sections were incubated with blocking solution (Dako Protein Block, Dako, Glostrup, Denmark) for 30 min at room temperature after washing with PBS. The sections were further incubated with primary antibodies (Ki67 and cleaved caspase 3 [all from Cell Signaling Technology], diluted at 1:200) overnight at 4 °C, washed with PBS several times, incubated with the corresponding biotinylated secondary antibodies (diluted at 1:500), and then washed with PBS multiple times. After adding avidin-biotin complexes (Vector Laboratories), the sections were visualized using diaminobenzidine (DAB) detection reagent (Enzo Life Sciences, Farmingdale, NY, USA) and mounted with a mounting solution (Vector Laboratories, Burlingame, CA, USA).

SK-MES-1 cells = assay: MTT assay SK-MES-1; type: cell-based
[2] = system: P53, caspase-3, bcl-2/bax, cleaved caspase-3; assay: Western blot apoptotic proteins, A549; type: cell-based, human; details: A549, 0.5, 1.0, 1.5 μM, 24 h
Experimental: as §1, §2, §3

T1 sequence (P04818 whole entry): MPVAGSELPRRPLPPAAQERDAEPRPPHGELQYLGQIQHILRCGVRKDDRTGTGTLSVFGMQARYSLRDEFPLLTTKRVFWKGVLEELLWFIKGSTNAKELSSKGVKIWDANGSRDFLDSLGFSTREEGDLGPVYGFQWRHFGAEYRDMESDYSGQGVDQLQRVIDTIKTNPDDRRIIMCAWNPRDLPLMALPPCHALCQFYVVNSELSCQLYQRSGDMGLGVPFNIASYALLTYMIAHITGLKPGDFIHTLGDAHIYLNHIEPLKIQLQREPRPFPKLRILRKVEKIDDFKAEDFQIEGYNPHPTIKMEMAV

Structure (SMILES): O=C(Nc1cccc(Cl)c1)Nc1ccccc1NS(=O)(=O)c1c[nH]c(=O)[nH]c1=O [Compound L14e, N'-(3-chlorophenyl)-2-(2,4-dihydroxypyrimidine-5-sulfonamido)phenyl urea]
- IC50 (human TS (hTS)): 1060 nM
- expression of P53, bax, bcl-2, cleaved caspase-3 [1]: over expression of P53, up-regulation of bax and down-regulation of bcl-2
- changes in body weight in xenograft mice (A549 tumor xenograft): negligible changes in body weight
- expression of Ki67 in tumors (IHC) (A549 tumor xenograft): significantly decreased
- expression of cleaved-caspase-3 in tumors (IHC) (A549 tumor xenograft): significantly increased
- growth of xenograft tumors (A549 tumor xenograft; intraperitoneal injection): significantly suppressed the growth of xenograft tumors
- tumor growth inhibition (TGI) (A549 tumor xenograft; intraperitoneal injection): 84.86
- inhibition of SK-MES-1 cells (SK-MES-1 cells): did not inhibit
- expression of P53, bax, bcl-2, cleaved caspase-3 [2]: over expression of P53, up-regulation of bax and down-regulation of bcl-2
